In publication PMC6539495, “Anti-Cancer Activity of Novel Dihydrotestosterone-Derived Ring A-Condensed Pyrazoles on Androgen Non-Responsive Prostate Cancer Cell Lines” (International Journal of Molecular Sciences, 2019):

How the values were obtained:
[1] = tested on: HeLa cells; experiment: MTT cell viability assay on HeLa cervical cancer cells; assay type: cell-based, human; conditions: 72 hours; for IC50: ± SD
Method: (§1) HeLa, MCF-7 and MDA-MB-231 cells were obtained from Sigma-Aldrich and maintained as reported previously. MRC-5, PC-3, DU 145 cells were purchased from American Type Culture Collection (ATCC, Manassas, VA, USA). PC-3 and DU 145 were maintained in RPMI medium (Sigma-Aldrich) whereas MRC-5 cells were maintained in DMEM medium (Sigma-Aldrich). All media were complemented with 10% Fetal bovine serum (FBS, Sigma-Aldrich) 2 mM L-glutamine, 0.01% streptomycin and 0.005% ampicillin (Sigma-Aldrich). Cells were cultured under standard conditions in a 37 °C incubator containing 5% CO2 in 95% humidity.
(§2) Each test compound was dissolved in cell culture grade DMSO (Molar Chemicals, Halásztelek, Hungary) in a final concentration of […]. Antiproliferative action of the synthesized steroids was investigated by MTT assay. An amount of 5000 cells/well were seeded into 96 well plates. Twenty-four hours post seeding, all cell lines were treated with each compound in 10 and 30 μM concentrations for 72 hours. […] After 72 hours, cells were washed with PBS and incubated with culture medium containing 0.5 mg/mL MTT (3-(4, 5-dimethylthiazolyl-2)-2,5-diphenyltetrazolium bromide) reagent (SERVA, GmbH, Heidelberg, Germany) for an hour at 37 °C. Formazan crystals were solubilized in DMSO and extinction was measured at 570 nm using a Synergy HTX plate reader (BioTech-Hungary, Budapest, Hungary). MTT assays were performed at least three times using four independent biological replicates. Data were normalized to solvent controls and the graphical representation of the obtained data as well as the calculation of IC50 values were carried out by GraphPad Prism 7 software (GraphPad Software; San Diego, CA, USA).

[2] = tested on: caspase 3 mRNA in PC-3 cells; experiment: RT-qPCR of caspase 3 mRNA; assay type: cell-based, human; conditions: PC-3, 48 h; 4e, 4j 5 µM; cisplatin 200 µM; GAPDH reference
Method: (§3) PC-3 cells were seeded at 2 × 10^6 cells/well density in 6 well plates. On the following day cells were treated with 5 µM of either compound 4e or 4j or with 200 µM of cisplatin. Cells were collected 48-hours post-treatment and total cellular RNA was isolated using RNeasy® Mini Kit (QIAGEN, Hilden, Germany) according to the manufacturer’s recommendation. RNA (2 µg) was reverse transcribed (TaqMan® Reverse Transcription kit, Applied Biosystems, Foster City, CA, USA) in 50 µL total volume. PCR reactions were performed on PicoReal™ Real-time PCR (Thermo Scientific, Walthan, MA, USA) using SYBRGreen qPCR Master Mix (Thermo Scientific) with an input of 1 µL cDNA. Each primer (Table 3) was used at 200 nM concentration. Relative transcript levels were determined by the ΔΔCt analysis using GAPDH as reference gene. Experiments were repeated three times with three biological replicates.

[3] = tested on: MDA-MB-231 cells; experiment: MTT cell viability assay on MDA-MB-231 breast cancer cells; assay type: cell-based, human; conditions: for IC50: ± SD
Method: as §1, §2

[4] = tested on: MCF-7 cells; experiment: MTT cell viability assay on MCF-7 breast cancer cells; assay type: cell-based, human; conditions: for IC50: ± SD
Method: as §1, §2

[5] = tested on: MRC-5 cells; experiment: MTT cell viability assay on non-cancerous MRC-5 fibroblasts; assay type: cell-based; conditions: for Mean values (%) of primary growth inhibitory screen (viability in %), MRC-5 / IC50: 72 hours, MTT; for IC50: ± SD
Method: as §1, §2

[6] = tested on: Bax mRNA in PC-3 cells; experiment: RT-qPCR of Bax mRNA; assay type: cell-based, human; conditions: PC-3, 48 h; 4e, 4j 5 µM; cisplatin 200 µM; GAPDH reference
Method: as §3

[7] = tested on: DU 145 cells; experiment: MTT cell viability assay on DU 145 prostate cancer cells; assay type: cell-based, human; conditions: for IC50: ± SD
Method: as §1, §2

[8] = tested on: PC-3 cells; experiment: Annexin V/PI apoptosis detection assay (flow cytometry); assay type: cell-based, human; conditions: PC-3, 5 µM, 48-hour treatment
Method: PC-3 cells were seeded at 2 × 10^6 cells/well density in 6-well plates. On the following day cells were treated with 5 µM of either compound 4e or 4j or with 200 µM of cisplatin (Accord Healthcare Ltd., Middlesex, UK). After 48-hour treatment, cells were collected and a Dead Cell Apoptosis Kit containing AnnexinV-FITC and propidium iodide (Life Technologies-Hungary, Budapest, Hungary) was used according to the manufacturer’s recommendation. Fluorescence intensities of at least 10,000 cells/sample were measured by FACSCalibur™ (BD Biosciences, Franklin Lakes, CA, USA) and data were analyzed by FlowJo V10 software (BD Biosciences, Franklin Lakes, NJ, USA). Experiments were repeated three times using triplicates.

[9] = tested on: PC-3 cells; experiment: MTT cell viability assay on PC-3 prostate cancer cells; assay type: cell-based, human; conditions: for Mean values (%) of primary growth inhibitory screen (viability in %), PC-3 / IC50: 72 hours, MTT; for antiproliferative potency against PC-3 prostate cancer cells compared to MRC-5 non-cancerous fibroblasts: primary screen; for IC50: ± SD
Method: as §1, §2

[10] = Solubility in DMSO for pharmacological studies; assay type: physicochemical; conditions: final concentration of 5 mM
Method: To perform pharmacological studies, the synthesized DHT derivatives were dissolved in DMSO (dimethyl sulfoxide) in a final concentration of 5 mM. One compound (5h) was non-soluble in the applied solvent, thus was excluded from the pharmacological evaluations. […] For this, PC-3 and DU 145 prostate cancer cells, MCF-7 and MDA-MB-231 breast cancer cells, HeLa cervical cancer cells and non-cancerous MRC-5 fibroblasts were used. […] On the heat map representing viability results following treatments with DHT derivatives at 30 µM concentration a remarkable structure–function relationship can be recognized (Figure 3).

| SMILES | Mean values (%) of primary growth inhibitory screen (viability in %), HeLa ([1]; 10 µM) [%] | Mean values (%) of primary growth inhibitory screen (viability in %), HeLa ([1]; 30 µM) [%] | IC50 [1] [µM] | caspase 3 mRNA expression level compared to untreated control [2] | Mean values (%) of primary growth inhibitory screen (viability in %), MDA-MB-231 ([3]; 10 µM, 72 hours) [%] | Mean values (%) of primary growth inhibitory screen (viability in %), MDA-MB-231 ([3]; 30 µM, 72 hours) [%] | IC50 ([3]; 72 hours) [µM] | Mean values (%) of primary growth inhibitory screen (viability in %), MCF-7 ([4]; 10 µM, 72 hours) [%] | Mean values (%) of primary growth inhibitory screen (viability in %), MCF-7 ([4]; 30 µM, 72 hours) [%] | IC50 ([4]; 72 hours) [µM] | Mean values (%) of primary growth inhibitory screen (viability in %), MRC-5 ([5]; 10 µM) [%] | Mean values (%) of primary growth inhibitory screen (viability in %), MRC-5 ([5]; 30 µM) [%] | IC50 [5] [µM] | Bax mRNA expression level compared to untreated control [6] | Mean values (%) of primary growth inhibitory screen (viability in %), DU 145 ([7]; 10 µM, 72 hours) [%] | Mean values (%) of primary growth inhibitory screen (viability in %), DU 145 ([7]; 30 µM, 72 hours) [%] | IC50 ([7]; 72 hours) [µM] | Mean values (%) of primary growth inhibitory screen (viability in %), PC-3 ([9]; 10 µM) [%] | antiproliferative potency against PC-3 prostate cancer cells compared to MRC-5 non-cancerous fibroblasts ([9]; 10 µM) | Mean values (%) of primary growth inhibitory screen (viability in %), PC-3 ([9]; 30 µM) [%] | further results |
| --- | --- | --- | --- | --- | --- | --- | --- | --- | --- | --- | --- | --- | --- | --- | --- | --- | --- | --- | --- | --- | --- |
| Cc1c2c(nn1-c1ccc([N+](=O)[O-])cc1)CC1CCC3C4CCC(O)C4(C)CCC3C1(C)C2 (stereo not drawn) [4j, 17β-Hydroxy-1′-(4″-nitrophenyl)-5′-methylpyrazolo[3′,4′:3,2]-5α-androstane] | 60.5 | 64.6 | > 30 | significantly increased | 83.8 | 80.6 | > 30 | 55.8 | 49.6 | 18.2 ± 3.9 | 99.1 | 99.8 | > 30 | significantly increased | 82.8 | 60.4 | 19.7 ± 1 | 38.2 | significantly higher | 41.6 | percentage of annexin V-positive cells (Q2 + Q3) [8]: 37.89%; antiproliferative potency against PC-3 prostate cancer cells compared to MRC-5 non-cancerous fibroblasts ([9]; 30 µM): significantly higher; IC50 [9]: 5.6 ± 1.1 µM |
| Cc1c2c(nn1-c1ccccc1)C[C@@H]1CC[C@@H]3[C@H](CC[C@]4(C)C(=O)CC[C@@H]34)[C@@]1(C)C2 [5a, 1′-Phenyl-5′-methylpyrazolo[3′,4′:3,2]-5α-androst-17-one] | 70.5 | 26.2 |  |  | 85.0 | 15.2 |  | 73.3 | 7.5 |  | 78.0 | 3.9 |  |  | 80.1 | 4.0 |  | 47.7 |  | 7.6 | melting point: 247 to 250 °C |
| COc1ccc(-n2nc3c(c2C)C[C@@]2(C)[C@@H](CC[C@@H]4[C@@H]2CC[C@]2(C)[C@@H](O)CC[C@@H]42)C3)cc1 [4e, 17β-Hydroxy-1′-(4″-methoxyphenyl)-5′-methylpyrazolo[3′,4′:3,2]-5α-androstane] | 31.7 | 15.1 | 8.5 ± 0.6 | significantly increased | 35.2 | 13.6 | 6.6 ± 0.9 | 20.9 | 14.0 | 5.5 ± 0.6 | 71.2 | 28.8 | 8.6 ± 1.3 | significantly increased | 23.3 | 5.5 | 3.6 ± 1.2 | 28.4 |  | 10.8 | specificity in cancer cell toxicity (cancer cell lines vs MRC-5) ([5]; primary screen, manifested already at 10 µM): utmost specificity; percentage of annexin V-positive cells (Q2 + Q3) [8]: 33.96%; IC50 [9]: 4.2 ± 1.1 µM |
| Cc1c2c(nn1-c1ccc(Br)cc1)CC1CCC3C4CCC(=O)C4(C)CCC3C1(C)C2 (stereo not drawn) [5h, 1′-(4″-Bromophenyl)-5′-methylpyrazolo[3′,4′:3,2]-5α-androst-17-one] |  |  |  |  |  |  |  |  |  |  |  |  |  |  |  |  |  |  |  |  | solubility in the applied solvent (DMSO) [10]: non-soluble |
| Cc1c2c(nn1-c1ccccc1)CC1CCC3C4CCC(O)C4(C)CCC3C1(C)C2 (stereo not drawn) [4a, 17β-Hydroxy-1′-phenyl-5′-methylpyrazolo[3′,4′:3,2]-5α-androstane] | 49.6 | 46.7 |  |  | 75.0 | 32.1 |  | 57.1 | 5.5 |  | 68.3 | 1.2 |  |  | 67.3 | 1.5 |  | 36.8 | significantly higher | 3.2 | IC50 ([1]; Homo sapiens, HeLa): 16.9 ± 3.7 µM; IC50 ([3]; Homo sapiens, MDA-MB-231, 72 hours): 15.3 ± 3.4 µM; IC50 ([4]; Homo sapiens, MCF7, 72 hours): 12.9 ± 0.1 µM; IC50 ([5]; Homo sapiens, MRC5): 23.7 ± 2.3 µM; IC50 ([7]; Homo sapiens, DU-145, 72 hours): 9.2 ± 1.2 µM; melting point: 241 to 245 °C; IC50 ([9]; Homo sapiens, PC-3): 5.6 ± 1.2 µM |
| Cc1ccccc1-n1nc2c(c1C)C[C@@]1(C)[C@@H](CC[C@@H]3[C@@H]1CC[C@]1(C)[C@@H](O)CC[C@@H]31)C2 [4b, 17β-Hydroxy-1′-(2″-tolyl)-5′-methylpyrazolo[3′,4′:3,2]-5α-androstane] | 36.0 | 34.1 |  |  | 69.0 | 64.0 |  | 39.1 | 32.4 |  | 72.9 | 64.2 |  |  | 61.1 | 48.3 |  | 67.5 | significantly higher | 54.7 |  |
